Entries after “also recorded” stand apart in the source; their conditions may differ. Oligonucleotides are written 5' to 3', each unit as a sugar letter and its base; * is a phosphorothioate linkage, no mark a phosphodiester; rarer units and linkages stand in square brackets, end groups in braces. Plain capitals give the bases only. e = 2'-O-(2-methoxyethyl) (MOE); [5mC] = 5-methylcytosine

Data set [1] deals with IKBKAP mRNA in GM04899 fibroblasts. Put plainly: Exon 20 inclusion in FD patient skin fibroblast line GM04899 (RT-PCR). It is filed as cell-based, human. The following applies: for % inclusion of exon 20: Lipofectamine 2000, two days, relative to IMR90 cells (100%). On the procedure: To investigate the effect of ISIS 421992 on patient-derived fibroblasts, the patient skin fibroblast line GM04899 (Coriell Cell Repository) was utilized. The cell line was derived from an individual homozygous for the major FD mutation.
GM04899 was cultured in minimal essential medium (Invitrogen) supplemented with non-essential amino acids (Invitrogen) and 20% (v/v) fetal bovine serum. The cells were grown to 40-50% confluence in 10-cm dishes. Cells were transfected with 2 nM, 5 nM, 25 nM, or 125 nM concentrations of ISIS 421992 using 12 μL Lipofectamine 2000 transfection reagent (Invitrogen). Two days later, cDNA synthesized from total RNA extracted from HEK-293 cells was amplified using the forward primer pCDNAF and reverse primer sequence IKAP21R4 to assay the splicing pattern of expressed RNAs by RT-PCR. To calculate exon 20 inclusion levels, the PCR amplicons were labeled with α^32P-dCTP. The PCR products were then separated by native PAGE, followed by phosphorimage analysis. The band intensities were quantified and values were normalized for the G+C content according to the DNA sequence. Multiple lanes for each condition represent independent experiments.
A batch of cells was treated with solvent (NaOH) only of the kinetin solution as a control. RNA from IMR90, a wild-type normal diploid lung fibroblast cell line was used as positive control. The results are expressed as percent inclusion of exon 20 compared to the exon 20 inclusion (100%) of IKBKAP mRNA in IMR90 cells.

Data set [2] relates to IKAP protein. Put plainly: IKAP protein levels in GM04899 fibroblasts (SDS-PAGE, anti-IKAP antibody, band intensity). It is filed as cell-based, human. The method, then: Protein samples were obtained by Trizol extraction and separated by SDS-PAGE. The bands were transferred onto a nitrocellulose membrane and probed with an anti-IKAP antibody (abcam #ab56362) (1:1,000 dilution in 5% milk in TBST) for 12 hrs. The membrane was washed 5 times with TBST for 5 min each and then probed with secondary antibody 800 nm LiCor (1:5,000 in 5% milk in TBST) for 1 hr in the dark. The membrane was subsequently washed 5 times with TBST for 5 min each. The bands were then exposed at 800 nm and band intensity was quantified using an Odyssey (LiCor) instrument. The results are presented in Table 4 as percent increase in band intensity compared to the control oligonucleotide-treated bands.

In data set [3] the test system is human IKBKAP mRNA. In words: Exon 20 inclusion in adult transgenic mice after intracerebroventricular infusion. It is filed as in vivo, mouse. The following applies: for Percent inclusion of exon 20 in human IKBKAP mRNA: thoracic spinal cord, day 8. The method, then:
To investigate the effect of ISIS 421992 in an animal model, transgenic mice that carry the entire human IKBKAP gene with the major FD mutation, in addition to being homozygous wild type at the mouse Ikbkap locus, were obtained from an NIH core facility.
Adult mice were treated with ISIS 421992 administered by intracerebroventricular infusion at the rate of 50 μg/day, 100 μg/day, or 200 μg/day. The protocol has been previously described by Hua et al. (Genes Dev. 2010. 24: 1634-1644). Adult mice 3-4 months old and weighing 20-30 g, were anesthetized and placed on a digital stereotaxic instrument (David Kopf Instruments). A small burr hole at the surgical site 1.8 mm lateral to the sagittal suture and 0.3 mm posterior to the bregma suture was drilled through the skull above the right lateral ventricle. A cannula with a 2.2 mm stylet was positioned in the hole. The cannula was connected to an Alzet micro-osmotic pump (model 1007D, Durect Corporation) with a vinyl catheter. The pump, prefilled with the oligonucleotide solution or PBS only was implanted subcutaneously on the back and continuously infused the solution through the cannula into the lateral ventricle at a rate of 0.5 μL per hour. After a week of ICV infusion, the mice were euthanized on day 8 and RNA from the thoracic spinal cord of the transgenic mice was extracted using Trizol and following the manufacturer's protocol. Multiple lanes for each condition represent independent experiments.

Regarding “ISIS 421992: uniform 2′-MOE 20-mer, phosphate backbone; GTCGCAAACAGTACAATGGC, SEQ ID NO 61, intron 20 (eGeTe[5mC]eGe[5mC]eAeAeAe[5mC]eAeGeTeAe[5mC]eAeAeTeGeGe[5mC])”, the “% inclusion of exon 20” value in data set [1] (GM04899, 2 nM) turned out to be 79%; in data set [1] (GM04899, 5 nM) it was 95%; in data set [1] (GM04899, 25 nM), 96%; in data set [1] (GM04899, 125 nM), 97%. Also, the “effect on the splicing defect / full-length mRNA levels, in words” value in data set [1] (GM04899 fibroblasts) is “almost completely suppressed the splicing defect; also recorded: as effective as treatment with kinetin for 3 days in restoring full-length mRNA levels”. Further, the “Percent increase in protein band intensity (IKAP)” value in data set [2] (GM04899, 2 nM as printed in Table 4, 3 days after transfection, compared to control oligonucleotide-treated bands) is recorded as 76%. The “IKAP protein levels, in words” value in data set [2] (GM04899, 5 nM, assayed 3 days after transfection) is listed as “significant increase in IKAP protein levels”. Further, the “Percent inclusion of exon 20 in human IKBKAP mRNA” value in data set [3] (ICV infusion 50 μg/day for a week) is on record as 40%; in data set [3] (ICV infusion 100 μg/day for a week), 46%; in data set [3] (ICV infusion 200 μg/day for a week), 60%. Also, the “inclusion of exon 20 in human IKBKAP mRNA, in words” value in data set [3] (ICV infusion 50-200 μg/day) is “dose-dependent increase in the inclusion of exon 20”.

These data come from patent publication US11066668B2, “Compositions and methods for modulation of IKBKAP splicing” (Ionis Pharmaceuticals, Inc., priority 2012, dated 2021).
